Test results published in publication PMC12833861, “Organoplatinum(II) Type II Immunogenic Cell Death Inducers Target Protein Tyrosine Phosphatase 1B to Drive Immunogenicity” (Journal of the American Chemical Society, 2025).

Biological target: T1, PTP1B (Homo sapiens, UniProt P18031)
T1 construct: gene PTPN1; recombinant PTP1B protein
T1 sequence (P18031 1-435): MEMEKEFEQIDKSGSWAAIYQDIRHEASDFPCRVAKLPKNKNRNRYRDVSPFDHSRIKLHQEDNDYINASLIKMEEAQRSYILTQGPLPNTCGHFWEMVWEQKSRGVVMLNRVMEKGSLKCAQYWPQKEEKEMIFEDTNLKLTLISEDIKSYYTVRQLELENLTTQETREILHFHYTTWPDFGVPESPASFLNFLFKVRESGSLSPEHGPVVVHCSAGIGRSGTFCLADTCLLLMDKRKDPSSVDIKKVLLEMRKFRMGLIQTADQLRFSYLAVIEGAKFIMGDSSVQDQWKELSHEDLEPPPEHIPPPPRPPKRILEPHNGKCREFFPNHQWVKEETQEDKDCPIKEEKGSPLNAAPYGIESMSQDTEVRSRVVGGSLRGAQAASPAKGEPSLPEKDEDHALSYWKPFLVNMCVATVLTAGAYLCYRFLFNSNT
Assay: p-nitrophenyl phosphate phosphatase assay with recombinant PTP1B; supported by CETSA in HCT116 lysates (ΔTm -4.[…] °C)
Assay type: biochemical

CCCCCC[n+]1ccn2[c]1[Pt-2]1([c]3ccccc3-c3cccc[n+]31)[c]1n(cc[n+]1CCCCCC)CCC2 [Pt-ER, PlatinER]
IC50: 20.6 ± 1.8 µM
